According to patent publication US20220000117A1, “METHOD FOR CONTROLLING DISEASES IN SMALL GRAIN CEREALS, SEED OF SMALL GRAIN CEREALS, AND METHOD FOR SUPPRESSING LODGING DAMAGE IN SMALL GRAIN CEREALS” (KUMIAI CHEMICAL INDUSTRY CO., LTD., priority 2019, published 2022):

How the values were obtained:
[1] = tested on: powdery mildew; test: Test Example 4: control test of wheat powdery mildew, cup in greenhouse, inoculated; format: in vivo, Blumeria graminis; conditions: for Degree of Disease Occurrence: 22 days after seeding
Method: (§1) Degree of Disease Occurrence=Σ(Index×Number of Leaves of Index)/(4×Number of Investigated Leaves)×100 (1)
(§2) Seed having a mass of 1 kg of wheat (variety: Norin No. 61) was mixed into 100 ml of suspension water containing 0.5 g of the above compound (6) or compound (3) (synthesis was performed in accordance with a known method, formulated 10% wettable powder was used) and air-dried, and then, 12 seeds were sown in a plastic cup having a diameter of 6 cm containing river sand and managed in a greenhouse. The number of emerged seeds was investigated nine days after seeding, and an emergence rate was calculated (Examples 10 and 11). In Comparative Example 11 and Comparative Example 12, 20 ml of suspension water of an active ingredient, which had been adjusted to have a concentration shown in Table 5, was sprayed in a frame of 45 cm×45 cm in which a pot of wheat seedlings was placed (corresponding to 1000 L/ha) 15 days after seeding. On day 15 after seeding, conidiospores of powdery mildew were sifted over leaves of wheat seedlings and inoculated onto the leaves (after the sprayed liquid was dried in the case of Comparative Examples), a lesion area ratio of powdery mildew in a first leaf was investigated 22 days after seeding according to the criteria in Table 1, and the degree of disease occurrence was calculated by the above calculation formula (1).

[2] = tested on: wheat (variety: Norin No. 61); test: Test Example 4: emergence rate of wheat seed; format: in vivo
Method: as §2

[3] = tested on: septoria leaf blotch; test: Test Example 8: control test of septoria leaf blotch of wheat, cup in greenhouse, inoculated, wheat variety Apache; format: in vivo, Septoria tritici; design: key to Degree of Disease Occurrence: Σ(index×leaves of index)/(4×investigated leaves)×100; 0–100 scale; conditions: for Degree of Disease Occurrence: 31 days after seeding
Method: as §1
Seed having a mass of 1 kg of wheat (variety: Apache) was mixed into 100 ml of suspension water containing from 0.5 g or 5 g of the 3,4-dichloroisothiazole derivative of the compound (6) or (3) (synthesis was performed in accordance with a known method, formulated 10% wettable powder was used) and air-dried, and then, 12 seeds were sown in a plastic cup having a diameter of 6 cm containing river sand and managed in a greenhouse. The number of emerged seeds was investigated 12 days after seeding, and an emergence rate was calculated. In Comparative Examples 19 to 22, 20 ml of suspension water of an active ingredient, which had been adjusted to have a concentration shown in Table 9, was sprayed in a frame of 45 cm×45 cm in which a pot of wheat seedlings was placed (corresponding to 1000 L/ha) 12 days after seeding. A spore suspension in which conidiospores of septoria leaf blotch are suspended were sprayed and inoculated on leaves of wheat seedlings 12 days after seeding (after the sprayed liquid was dried in the case of Comparative Examples), a lesion area ratio of septoria leaf blotch in a second leaf was investigated 31 days after seeding according to the criteria in Table 1, and the degree of disease occurrence was calculated by the above calculation formula (1).

[4] = tested on: powdery mildew; test: Test Example 9: control test of wheat powdery mildew, cup in greenhouse, inoculated, Norin No. 61 (Tables 10 to 14); format: in vivo, Blumeria graminis; design: key to Degree of Disease Occurrence: Σ(index×leaves)/(4×leaves investigated)×100; 0 = no disease, 100 = max
Procedure, shortened: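 Norin No. 61 wheat seed was treated with compound suspension (DMSO solution or 10% wettable powder), air-dried and grown in river sand in a greenhouse; comparators were sprayed at 1000 L/ha on day 14. Conidia were dusted on at day 14, and first-leaf lesion area was scored at day 21 as degree of disease occurrence.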

[5] = tested on: septoria leaf blotch; test: Test Example 10: control test of septoria leaf blotch of wheat, cup in greenhouse, inoculated, variety ARKEOS (Tables 15 to 19); format: in vivo, Septoria tritici
Method: as §1
Seed of wheat (variety: ARKEOS) was used, and 100 ml of suspension waters each containing the compound shown in Table 15 at an amount shown in Table 15 (synthesis was performed in accordance with a known method, a liquid dissolved in a small amount of DMSO or formulated 10% wettable powder was used) were prepared. Seed having a mass of 1 kg was mixed into the suspension water with a rate shown in Examples of Table 15, and air-dried, and then, 5 seeds were sown in a plastic cup having a diameter of 6 cm containing mixed soil of river sand and horticultural soil and managed in a greenhouse. In Comparative Examples, 20 ml of suspension water of an active ingredient, which had been adjusted to have a concentration shown in Table 15 to 19, was sprayed in a frame of 45 cm×45 cm in which a pot of wheat seedlings was placed (corresponding to 1000 L/ha) 14 days after seeding. On day 14 after seeding, a spore suspension in which conidiospores of septoria leaf blotch are suspended was sprayed and inoculated on leaves of wheat seedlings (after the sprayed liquid was dried in the case of Comparative Examples), a lesion area ratio of septoria leaf blotch in a second leaf was investigated approximately 35 days after seeding according to the criteria in Table 1, and the degree of disease occurrence was calculated by the above calculation formula (1).

[6] = Foliage Spray 50 ppm suspension water (50 g/ha) day 15, first leaf
[7] = Seed Treatment 0.5 g/Seed 1 kg (50 g/ha), inoculated day 15, first leaf
[8] = Foliage Spray group, 50 ppm (50 g/ha) 15 days after seeding, emergence counted nine days after seeding
[9] = Seed Treatment 0.5 g/Seed 1 kg (50 g/ha), nine days after seeding
[10] = Foliage Treatment, spray 50 ppm suspension water (50 g/ha) day 12, second leaf
[11] = Foliage Treatment, spray 500 ppm suspension water (500 g/ha) day 12, second leaf
[12] = Seed Treatment 0.5 g/Seed 1 kg, inoculated day 12, second leaf
[13] = Seed Treatment 5 g/Seed 1 kg (500 g/ha), inoculated day 12, second leaf
[14] = Table 10 run, Foliage Treatment, spray 5 ppm (5 g/ha) day 14, first leaf, 21 days after seeding
[15] = Table 10 run, Foliage Treatment, spray 50 ppm (50 g/ha) day 14, first leaf, 21 days after seeding
[16] = Table 10 run, Seed Treatment 0.05 g/Seed 1 kg (5 g/ha), first leaf, 21 days after seeding
[17] = Table 10 run, Seed Treatment 0.5 g/Seed 1 kg (50 g/ha), first leaf, 21 days after seeding
[18] = Table 15, Foliage Treatment, spray 50 ppm (50 g/ha) day 14, second leaf, approximately 35 days after seeding
[19] = Table 15, Foliage Treatment, spray 500 ppm (500 g/ha) day 14, second leaf, approximately 35 days after seeding
[20] = Table 15, Seed Treatment 0.5 g/Seed 1 kg (50 g/ha), second leaf, approximately 35 days after seeding
[21] = Table 15, Seed Treatment 5 g/Seed 1 kg (500 g/ha), second leaf, approximately 35 days after seeding
[22] = Table 16, Foliage Treatment, spray 10 ppm suspension water (corresponding to 10 g/ha) 14 days after seeding, untreated 57.1
[23] = Table 16, Foliage Treatment, spray 10 ppm suspension water (corresponding to 10 g/ha) 14 days after seeding, untreated 93.3
[24] = Table 16, Foliage Treatment, spray 500 ppm suspension water (corresponding to 500 g/ha) 14 days after seeding, untreated 57.1
[25] = Table 16, Foliage Treatment, spray 500 ppm suspension water (corresponding to 500 g/ha) 14 days after seeding, untreated 93.3
[26] = Table 16, Seed Treatment, 0.1 g/Seed 1 kg (corresponding to 10 g/ha), untreated 57.1
[27] = Table 16, Seed Treatment, 0.1 g/Seed 1 kg (corresponding to 10 g/ha), untreated 93.3
[28] = Table 16, Seed Treatment, 5 g/Seed 1 kg (corresponding to 500 g/ha), untreated 57.1
[29] = Table 16, Seed Treatment, 5 g/Seed 1 kg (corresponding to 500 g/ha), untreated 93.3
[30] = Table 11 run (different day), Foliage Treatment, spray 5 ppm (5 g/ha)
[31] = Table 11 run (different day), Foliage Treatment, spray 50 ppm (50 g/ha)
[32] = Table 11 run (different day), Seed Treatment 0.05 g/Seed 1 kg (5 g/ha)
[33] = Table 11 run (different day), Seed Treatment 0.5 g/Seed 1 kg (50 g/ha)
[34] = Table 12 run (different day), Foliage Treatment, spray 50 ppm (50 g/ha)
[35] = Table 12 run (different day), Seed Treatment 0.5 g/Seed 1 kg (50 g/ha)

Structure (SMILES) | Degree of Disease Occurrence [1, 6] | Degree of Disease Occurrence [1, 7] | disease occurrence of powdery mildew, seed treatment compared with spraying on foliage during a growing period [1] | Emergence Rate (%) [2, 8] [%] | Emergence Rate (%) [2, 9] [%] | Degree of Disease Occurrence [3, 10] | Degree of Disease Occurrence [3, 11] | Degree of Disease Occurrence [3, 12] | Degree of Disease Occurrence [3, 13] | disease occurrence of septoria leaf blotch, seed treatment compared with spraying on foliage during a growing period [3] | Degree of Disease Occurrence [4, 14] | Disease Leaf Rate (%) [4, 14] [%] | Degree of Disease Occurrence [4, 15] | Disease Leaf Rate (%) [4, 15] [%] | Degree of Disease Occurrence [4, 16] | Disease Leaf Rate (%) [4, 16] [%] | Degree of Disease Occurrence [5, 24] | Disease Leaf Rate (%) [5, 25] [%] | Degree of Disease Occurrence [5, 28] | Disease Leaf Rate (%) [5, 29] [%] | also measured
O=C(O)c1snc(Cl)c1Cl [Compound (6)] | 22.2 | 16.3 | suppressed lower | 100 | 97.2 | 29.5 | 48.5 | 16.1 | 4.2 | suppressed lower | 56.3 | 100.0 | 40.6 | 87.5 | 48.5 | 93.8 | 86.2 | 95.2 | 41.3 | 95.0 | Degree of Disease Occurrence [4, 17]: 28.1; Disease Leaf Rate (%) [4, 17]: 87.1%; Degree of Disease Occurrence [5, 18]: 29.5; Disease Leaf Rate (%) [5, 18]: 88.9%; Degree of Disease Occurrence [5, 19]: 48.5; Disease Leaf Rate (%) [5, 19]: 100.0%; Degree of Disease Occurrence [5, 20]: 16.1; Disease Leaf Rate (%) [5, 20]: 58.8%; Degree of Disease Occurrence [5, 21]: 4.2; Disease Leaf Rate (%) [5, 21]: 16.9%; Degree of Disease Occurrence [5, 22]: 53.3; Disease Leaf Rate (%) [5, 23]: 100.0%; Degree of Disease Occurrence [5, 26]: 34.7; Disease Leaf Rate (%) [5, 27]: 84.4%
OCc1snc(Cl)c1Cl [Compound (3)] | 62.1 | 17.0 | suppressed lower | 97.2 | 97.2 | 29.3 | 37.5 | 22.2 | 8.2 | suppressed lower | 63.5 | 100.0 | 56.3 | 100.0 | 45.2 | 100.0 | 77.4 | 100.0 | 40.4 | 85.7 | Degree of Disease Occurrence [4, 17]: 14.8; Disease Leaf Rate (%) [4, 17]: 59.4%; Degree of Disease Occurrence [5, 18]: 29.3; Disease Leaf Rate (%) [5, 18]: 97.0%; Degree of Disease Occurrence [5, 19]: 37.5; Disease Leaf Rate (%) [5, 19]: 91.7%; Degree of Disease Occurrence [5, 20]: 22.2; Disease Leaf Rate (%) [5, 20]: 77.8%; Degree of Disease Occurrence [5, 21]: 8.2; Disease Leaf Rate (%) [5, 21]: 32.8%; Degree of Disease Occurrence [5, 22]: 62.5; Disease Leaf Rate (%) [5, 23]: 100.0%; Degree of Disease Occurrence [5, 26]: 40.6; Disease Leaf Rate (%) [5, 27]: 96.9%
O=S1(=O)N=C(OCc2snc(Cl)c2Cl)c2ccccc21 [Compound (1), Dichlobentiazox] |  |  |  |  |  |  |  |  |  |  |  |  |  |  |  |  | 71.9 | 100.0 | 45.7 | 95.8 | Degree of Disease Occurrence [4, 30]: 95.3; Disease Leaf Rate (%) [4, 30]: 100%; Degree of Disease Occurrence [4, 31]: 89.1; Disease Leaf Rate (%) [4, 31]: 100%; Degree of Disease Occurrence [4, 32]: 56.4; Disease Leaf Rate (%) [4, 32]: 93.8%; Degree of Disease Occurrence [4, 33]: 22.7; Disease Leaf Rate (%) [4, 33]: 71.9%; Degree of Disease Occurrence [4, 34]: 21.7; Disease Leaf Rate (%) [4, 34]: 46.7%; Degree of Disease Occurrence [4, 35]: 0.0; Disease Leaf Rate (%) [4, 35]: 0.0%
